From patent publication US11179435B2, “Hangover alleviating composition containing conjugate of sesamol and peptide as active ingredient” (CAREGEN CO., LTD., priority 2017, dated 2021)
Starred links: 1 amine or outer side, 2 acyl side, 3 side chain; linkers in the order of their positions; H or OH if unused. No end group written: not given here. Suc = O=C(CCC(=O)[*:2])[*:1]

How the values were obtained:
Assay type in all cases: cell-based, human
[1] = test system: aldehyde dehydrogenase (ALDH); assay: ALDH activity assay in HepG2 cells treated with conjugate; conditions: 50 μM or 100 μM, 24 hours, compared to untreated control group
Procedure: Alcohol was converted to acetaldehyde by alcohol dehydrogenase (ADH), an alcohol degrading enzyme, and the converted acetaldehyde was converted and degraded to acetate by aldehyde dehydrogenase (ALDH). Therefore, in order to confirm the effect of increasing the activity of ALDH involved in the alcohol degradation process, liver carcinoma cells were treated with the two types of conjugates of the sesamol and the peptides prepared in [Preparation Example 2], respectively, and then the ALDH activity assay was performed.
Specifically, liver hepatocellular carcinoma (HepG2) cells, which were human liver carcinoma cells, were inoculated into a 6-well plate at a density of 4×10^5 cells/well and then incubated overnight. Thereafter, the two types of conjugates of the sesamol and the peptides prepared in [Preparation Example 2] were treated at a concentration of 50 μM or 100 μM, respectively, and incubated for 24 hours, and the cells were collected and then the ALDH activity was analyzed using an ALDH activity assay kit (abcam, ab155893). Meanwhile, a positive control group was treated with 5 μM sulfolaphane.
For the ALDH activity assay, each of the collected cells was treated with an ALDH activity assay buffer included in the kit, and then lysed with a homogenizer under ice. […] Thereafter, the ALDH activity was calculated using the following [Equation 1]. […]

ALDH1 = assay: RT-PCR mRNA expression in HepG2 cells; conditions: 10 μM or 50 μM, 6 hours, compared with untreated control group
Procedure: (§1) In order to confirm an effect of increasing the expression of ADH and ALDH involved in the alcohol degradation process, liver carcinoma cells were treated with the two types of conjugates of the sesamol and the peptides prepared in [Preparation Example 2], respectively, and then RT-PCR was performed.
(§2) Specifically, HepG2 cells were inoculated in a 6-well plate at a density of 4×10^5 cells/well, and then incubated overnight. Thereafter, the two types of conjugates of the sesamol and the peptides prepared in [Preparation Example 2] were treated at a concentration of 10 μM or 50 μM, respectively, and incubated for 6 hours, and the cells were collected. Thereafter, the total RNA was isolated from the collected cells according to a manufacturer's protocol using Trizol (Invitrogen, USA), and then 1 μg of the isolated RNA was synthesized to cDNA according to a manufacturer's protocol using a cDNA synthesis kit (Intron, Korea). The cDNA was subjected to PCR using primers shown in Table 2 below, and then electrophoresed on a 5% agarose gel to confirm mRNA expression levels of ADH4, ALDH1, and ALDH2.

ALDH2 = assay: RT-PCR mRNA expression in HepG2 cells; conditions: 10 μM or 50 μM, 6 hours, compared with untreated control group
Procedure: as §1, §2

ADH4 = assay: RT-PCR mRNA expression in HepG2 cells; conditions: 10 μM or 50 μM, 6 hours, compared with untreated control group
Procedure: as §1, §2

Substance: SEQ ID NO: 1: Sesamol linked via succinyl linker to the N-terminus of peptide SIPCKLQSG (SEQ ID NO: 1) ({sesamol-Suc}-SIPCKLQSG)
- ALDH activity [1]: increased in a concentration-dependent manner
- mRNA expression of ALDH1 (ALDH1): significantly increased
- mRNA expression of ALDH2 (ALDH2): significantly increased
- mRNA expression of ADH4 (ADH4): significantly increased
